Laboratory results taken from ChEMBL document CHEMBL1201862, “PubChem BioAssay data set” (2004).
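Protocol summary: plate cells (96-well), add compound at 5 concentrations, incubate 48 h, interpolate endpoints linearly. Here, GI50 denotes the concentration required for 50% inhibition of growth.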 The source made the active and inactive calls. Rule as the data show it: active = GI50 up to about 1.1 µM and inactive = higher. Non-standard residues stand in square brackets, D forms with d. Residues, ends and D or L forms follow the SMILES beside them. ξ: configuration not given here. *: point of attachment. ξNMeF = CNC(Cc1ccccc1)C(=O)O; NMeV = CN[C@H](C(=O)O)C(C)C; Boc = CC(C)(C)OC(=O)*; OBn = c1ccc(CO*)cc1

What was measured:
Test in all cases: inhibition of tumour cell growth, NCI panel, 48 h
A549 = tested on: A549
CAKI-1 = tested on: CAKI-1
COLO 205 = tested on: COLO 205
HCC 2998 = tested on: HCC 2998
HCT-116 = tested on: HCT-116
HCT-15 = tested on: HCT-15
Malme-3M = tested on: Malme-3M
NCI-H23 = tested on: NCI-H23
NCI-H460 = tested on: NCI-H460
RPMI-8226 = tested on: RPMI-8226
SF-268 = tested on: SF-268
SF-295 = tested on: SF-295
SK-MEL-2 = tested on: SK-MEL-2
SK-OV-3 = tested on: SK-OV-3
SNB-19 = tested on: SNB-19
SNB-75 = tested on: SNB-75
U-251 = tested on: U-251
NCI-H522 = tested on: NCI-H522

Compound	GI50 (A549)	GI50 (CAKI-1)	GI50 (COLO 205)	GI50 (HCC 2998)	GI50 (HCT-116)	GI50 (HCT-15) [µM]	GI50 (Malme-3M)	GI50 (NCI-H23)	GI50 (NCI-H460)	GI50 (RPMI-8226)	GI50 (SF-268)	GI50 (SF-295)	GI50 (SK-MEL-2)	GI50 (SK-OV-3)	GI50 (SNB-19)	GI50 (SNB-75)	GI50 (U-251)	GI50 (NCI-H522)
Cc1ccc(S(=O)(=O)NNC(=O)c2sc(-c3nc(C)c(C(=O)NNS(=O)(=O)c4ccc(C)cc4)s3)nc2C)cc1	> 100 µM (inactive)	24 µM (inactive)	> 100 µM (inactive)	> 100 µM (inactive)	84.5 µM (inactive)	47.1	> 100 µM (inactive)	> 100 µM (inactive)	> 100 µM (inactive)	45.3 µM (inactive)	> 100 µM (inactive)	> 100 µM (inactive)	> 100 µM (inactive)	> 100 µM (inactive)	> 100 µM (inactive)	58.3 µM (inactive)	> 100 µM (inactive)	–
CN1C(=O)CC2(C)c3cc(C=O)ccc3N(C)C12 (stereo not given)	> 100 µM (inactive)	–	> 100 µM (inactive)	> 100 µM (inactive)	> 100 µM (inactive)	> 100	> 100 µM (inactive)	> 100 µM (inactive)	> 100 µM (inactive)	–	> 100 µM (inactive)	> 100 µM (inactive)	> 100 µM (inactive)	> 100 µM (inactive)	> 100 µM (inactive)	69.5 µM (inactive)	> 100 µM (inactive)	> 100 µM (inactive)
CCCCN1C(=O)NC(Cc2ccccc2)C1=O (stereo not given)	> 100 µM (inactive)	> 100 µM (inactive)	–	> 100 µM (inactive)	–	–	> 100 µM (inactive)	> 100 µM (inactive)	> 100 µM (inactive)	–	> 100 µM (inactive)	> 100 µM (inactive)	> 100 µM (inactive)	–	> 100 µM (inactive)	> 100 µM (inactive)	> 100 µM (inactive)	> 100 µM (inactive)
COc1nc(NC2OCC(OC(C)=O)C(OC(C)=O)C2OC(C)=O)c(/N=C(\C)C(C)=O)c(=O)n1C (stereo not given)	> 100 µM (inactive)	> 100 µM (inactive)	> 100 µM (inactive)	–	> 100 µM (inactive)	> 100	> 100 µM (inactive)	> 100 µM (inactive)	> 100 µM (inactive)	> 100 µM (inactive)	> 100 µM (inactive)	> 100 µM (inactive)	> 100 µM (inactive)	–	> 100 µM (inactive)	> 100 µM (inactive)	> 100 µM (inactive)	–
CCN(CC)CCNc1ccc2ncn3c4ccccc4c(=O)c1c23	2.85 µM (inactive)	2.06 µM (inactive)	1.87 µM (inactive)	–	0.916 µM (active)	3.96	3.63 µM (inactive)	7.06 µM (inactive)	2.26 µM (inactive)	4.59 µM (inactive)	3.99 µM (inactive)	3.58 µM (inactive)	5.01 µM (inactive)	2.45 µM (inactive)	9.84 µM (inactive)	–	4.52 µM (inactive)	2.26 µM (inactive)
O=c1cc(/C=C/c2ccccc2)c2ccc(O/C(=C\c3ccccc3)c3nc4ccccc4c(=O)o3)cc2o1	30.4 µM (inactive)	25.7 µM (inactive)	22.2 µM (inactive)	33.3 µM (inactive)	14.2 µM (inactive)	30.3	31.3 µM (inactive)	10.6 µM (inactive)	23.3 µM (inactive)	4.76 µM (inactive)	11.8 µM (inactive)	26.7 µM (inactive)	25.6 µM (inactive)	39.4 µM (inactive)	26 µM (inactive)	–	23 µM (inactive)	–
O=C(N/C(=C\c1ccccc1Cl)c1nc2ccccc2[nH]1)c1ccccc1	26.7 µM (inactive)	29.5 µM (inactive)	34.6 µM (inactive)	29.4 µM (inactive)	–	25.8	23.5 µM (inactive)	25.1 µM (inactive)	–	–	32.7 µM (inactive)	17 µM (inactive)	23.5 µM (inactive)	31.6 µM (inactive)	29.3 µM (inactive)	–	27 µM (inactive)	22.8 µM (inactive)
Cc1nc2nn(Cc3ccccc3)cc2c(=O)o1	> 100 µM (inactive)	–	> 100 µM (inactive)	> 100 µM (inactive)	> 100 µM (inactive)	> 100	> 100 µM (inactive)	–	> 100 µM (inactive)	> 100 µM (inactive)	> 100 µM (inactive)	> 100 µM (inactive)	> 100 µM (inactive)	–	> 100 µM (inactive)	> 100 µM (inactive)	> 100 µM (inactive)	–
COP1(=O)Oc2ccccc2C(=O)C(C(F)(F)F)(C(F)(F)F)O1 (stereo not given)	> 100 µM (inactive)	50.6 µM (inactive)	> 100 µM (inactive)	0.577 µM (active)	> 100 µM (inactive)	> 100	–	> 100 µM (inactive)	> 100 µM (inactive)	42.9 µM (inactive)	> 100 µM (inactive)	> 100 µM (inactive)	> 100 µM (inactive)	> 100 µM (inactive)	> 100 µM (inactive)	> 100 µM (inactive)	> 100 µM (inactive)	> 100 µM (inactive)
O=c1[nH]c2c(O)cccc2c2cc3c(c(O)c12)OCO3 [NARCIPRIMINE]	25.5 µM (inactive)	20.9 µM (inactive)	13.1 µM (inactive)	19.5 µM (inactive)	13.8 µM (inactive)	22.5	22.8 µM (inactive)	–	14.6 µM (inactive)	25 µM (inactive)	23.2 µM (inactive)	20.1 µM (inactive)	–	23.6 µM (inactive)	13.6 µM (inactive)	20.8 µM (inactive)	16 µM (inactive)	19.3 µM (inactive)
CC1=C(/C=C/C(C)=C/C=C/C(C)=C/C=C/C=C(C)/C=C/C=C(C)/C=C/C=C(C)/C=C/C=C(\C)C(=O)O)C(C)(C)CCC1	> 100 µM (inactive)	> 100 µM (inactive)	> 100 µM (inactive)	–	> 100 µM (inactive)	> 100	> 100 µM (inactive)	> 100 µM (inactive)	> 100 µM (inactive)	> 100 µM (inactive)	> 100 µM (inactive)	> 100 µM (inactive)	> 100 µM (inactive)	> 100 µM (inactive)	> 100 µM (inactive)	69 µM (inactive)	> 100 µM (inactive)	> 100 µM (inactive)
CC1(C)C2=CCCC(=O)[C@@]2(C)CC[C@@H]1O	> 100 µM (inactive)	> 100 µM (inactive)	> 100 µM (inactive)	> 100 µM (inactive)	> 100 µM (inactive)	–	–	> 100 µM (inactive)	> 100 µM (inactive)	> 100 µM (inactive)	> 100 µM (inactive)	> 100 µM (inactive)	5.97 µM (inactive)	> 100 µM (inactive)	> 100 µM (inactive)	> 100 µM (inactive)	> 100 µM (inactive)	> 100 µM (inactive)
N#CCCN(CCC#N)c1ccc(/C=C(\NC(=O)c2cc([N+](=O)[O-])ccc2Cl)C(=O)Nc2ccccc2)cc1	> 100 µM (inactive)	62.1 µM (inactive)	67.9 µM (inactive)	–	78.7 µM (inactive)	4.55	–	> 100 µM (inactive)	–	> 100 µM (inactive)	30.8 µM (inactive)	64.6 µM (inactive)	> 100 µM (inactive)	> 100 µM (inactive)	> 100 µM (inactive)	–	> 100 µM (inactive)	44.2 µM (inactive)
CC(C)[C@@H](C(=O)N(C)[C@H](C(=O)N1CCC[C@H]1C(=O)OCc1ccccc1)C(C)C)N(C)C(=O)C(Cc1ccccc1)N(C)C(=O)[C@H](NC(=O)OC(C)(C)C)C(C)C (stereo not given in full) (Boc-[dV][ξNMeF][NMeV][NMeV]P-OBn)	> 31.6 µM (inactive)	> 31.6 µM (inactive)	> 82.6 µM (inactive)	> 10 µM (inactive)	> 31.6 µM (inactive)	> 31.6	> 84.9 µM (inactive)	–	> 31.6 µM (inactive)	10.4 µM (inactive)	> 31.6 µM (inactive)	26.5 µM (inactive)	> 31.6 µM (inactive)	> 31.6 µM (inactive)	> 31.6 µM (inactive)	14 µM (inactive)	> 31.6 µM (inactive)	–
Brc1ccc2c(c1)C1C(CO2)C(c2ccccc2)=NN1c1ccccc1 (stereo not given)	> 100 µM (inactive)	–	> 100 µM (inactive)	> 100 µM (inactive)	> 100 µM (inactive)	–	> 100 µM (inactive)	> 100 µM (inactive)	> 100 µM (inactive)	77.6 µM (inactive)	> 100 µM (inactive)	> 100 µM (inactive)	> 100 µM (inactive)	> 100 µM (inactive)	> 100 µM (inactive)	> 100 µM (inactive)	> 100 µM (inactive)	–
COC(=O)CCC(=O)Nc1cc(Cl)ccc1Cl	> 100 µM (inactive)	> 100 µM (inactive)	–	> 100 µM (inactive)	> 100 µM (inactive)	> 100	> 100 µM (inactive)	> 100 µM (inactive)	> 100 µM (inactive)	> 100 µM (inactive)	> 100 µM (inactive)	> 100 µM (inactive)	> 100 µM (inactive)	> 100 µM (inactive)	> 100 µM (inactive)	–	> 100 µM (inactive)	> 100 µM (inactive)
CN1Nc2ccccc2CC1=O	> 100 µM (inactive)	> 100 µM (inactive)	> 100 µM (inactive)	> 100 µM (inactive)	> 100 µM (inactive)	> 100	> 100 µM (inactive)	> 100 µM (inactive)	> 100 µM (inactive)	> 100 µM (inactive)	> 100 µM (inactive)	> 100 µM (inactive)	> 100 µM (inactive)	> 100 µM (inactive)	> 100 µM (inactive)	> 100 µM (inactive)	> 100 µM (inactive)	–
